The record followed here is patent US20240181049A1, “HARNESSING THE POWER OF MICROBIOTA AND METABOLITES FOR THE TREATMENT OF CANCER” (UTI LIMITED PARTNERSHIP, priority 2019, published 2024).

The subject of assay [1] is T cells in the MLN. The experiment in a line: Th1 activation in vivo after ovalbumin/CpG immunization. More on the design: species or system GF mice. Conditions: 300 mg/kg/BW i.p.; vs vehicle. The protocol:
FIG. 5A-5L: Inosine promotes Th1 activation and anti-tumor immunity. (a) Schematic overview of experimental setup to assess the effect of inosine on Th1 activation in vivo. (b, c) Representative dot plots and quantification (left and right panel respectively) of T-bet^+IFN-γ^+CD3ε^+ (b) CD8^+ or (c) CD4^+ T cells in the MLN. (d) Schematic overview of experimental setup to assess the effect of inosine on anti-tumor immunity. Upon palpable tumors, mice were treated with 100 μg anti-CTLA-4 i.p. (5 times every 72 hours) and in some groups 20 μg CpG i.p. (5 times every 72 hours). In addition, inosine (300 mg/KG/BW) or PBS was given daily orally (O), through gavage or systemically (S) through i.p. injection. (e) Tumor weight and quantification of IFN-γ^+ cells amongst (f) CD4^+ or (g) CD8^+ cells are shown. (h). Schematic overview to assess the requirement of A2AR signaling for inosine-induced anti-tumor immunity. […] (j) Tumor weight and quantification of IFN-γ^+ in (k) CD8^+ or (l) CD4^+ cells in the tumor are shown. […]
(§1) To evaluate the effect of inosine on Th1 activation, mice received 30 μg CpG, […] EndoFit Ovalbumin (both Invivogen) and 2 μg OVA323-339 (Sigma) i.p. and 24 hours later mice received 300 mg/kg/BW inosine or PBS as a control through i.p. injection. T cell differentiation was assessed 48 hours later. […]

In assay [2] the test system is MC38 tumor cells. The experiment in a line: MC38 tumors in GF mice: inosine with anti-CTLA-4 with or without CpG. The class given is in vivo. The protocol: FIG. 5A-5L: Inosine promotes Th1 activation and anti-tumor immunity. (a) Schematic overview of experimental setup to assess the effect of inosine on Th1 activation in vivo. (b, c) Representative dot plots and quantification (left and right panel respectively) of T-bet^+IFN-γ^+CD3ε^+ (b) CD8^+ or (c) CD4^+ T cells in the MLN. (d) Schematic overview of experimental setup to assess the effect of inosine on anti-tumor immunity. Upon palpable tumors, mice were treated with 100 μg anti-CTLA-4 i.p. (5 times every 72 hours) and in some groups 20 μg CpG i.p. (5 times every 72 hours). In addition, inosine (300 mg/KG/BW) or PBS was given daily orally (O), through gavage or systemically (S) through i.p. injection. (e) Tumor weight and quantification of IFN-γ^+ cells amongst (f) CD4^+ or (g) CD8^+ cells are shown. (h). Schematic overview to assess the requirement of A2AR signaling for inosine-induced anti-tumor immunity. 1×10^6 MC38 cells (s.c.) and WT or A2AR-deficient 1×10^7 T cells (i.v. 6×10^6 CD4^+ and 4×10^6 CD8^+ cells) were injected. Upon palpable tumors, mice were treated with 100 μg anti-CTLA-4, 20 μg CpG (4 times every 72 hours, both i.p.) and inosine (daily, 300 mg/KG/BW, through gavage). (i) Pictures of tumors are shown at day 20. scale bars: 1 cm. (j) Tumor weight and quantification of IFN-γ^+ in (k) CD8^+ or (l) CD4^+ cells in the tumor are shown. Data are mean±SEM and pooled from two individual experiments (a-l) 10-11 mice/group. *, P<0.05; **, P<0.01; ***, P<0.001.
FIG. 18A-18H: Classical dendritic cells are required for bacteria dependent effect of ICB. (a) IL-12p70 expression in classical dendritic cells (MHCII^+CD11c^+B220^−CD64^−) and macrophages (MHCII^+CD11c^+B220^−, CD64^+) (b) Quantification of IL-12p70 expression in macrophages and cDCs. Classical dendritic cells were depleted with diphtheria toxin (DT) in bone marrow chimeric mice after MC38 tumor challenge, followed by anti-CTLA-4 treatment (see FIG. 4h for experimental setup). Quantification of splenic (c) IFN-γ^+CD8^+ or (d) Ki-67^+ CD8^+ T cells. (e and f) same as (c and d) but for CD4^+ T cells. (g and h) 1×10^6 MC38 cells (s.c.) were injected in GF mice. Seven days later upon palpable tumors, mice were treated with 100 μg anti-CTLA-4 i.p. (5 times every 72 hours) and in some groups 20 μg CpG i.p. (5 times every 72 hours). In addition, inosine (300 mg/KG/BW) or PBS was given daily orally (O), through gavage or systemically (S) through i.p. injection. Quantification of Ki-67^+ cells is shown. […]
as §1

The mark [3] stands for this setting: with anti-CTLA-4, in the absence of CpG.
Where [4] appears, read: with anti-CTLA-4 and CpG, oral or systemic, vs PBS.

As to `OC[C@H]1O[C@@H](n2cnc3c(O)ncnc32)[C@H](O)[C@@H]1O` [inosine], the “proportions of T-bet+, IFN-γ+ CD8+ and CD4+ T cells in the MLN” value in assay [1] was “increased”. For the same compound, in assay [2] (setting [3]), the anti-tumor immunity entry was “reduced anti-tumor immunity” and the tumor weight entry is “increased tumor weight”. In assay [2] (setting [4]), the anti-tumor immunity entry is “increased anti-tumor immunity” and the tumor weight entry is recorded as “reduction of tumor weight”.
